Laboratory results taken from patent US12213984B2, “Immunoregulatory agent” (KYUSHU UNIVERSITY, NATIONAL UNIVERSITY CORPORATION, priority 2015, dated 2025).

Tests used:
[1] = molecular target: T1, DOCK2 (Homo sapiens, UniProt Q92608); experiment: in-vitro GEF assay, Rac activation by DOCK2 (Experimental Example 1); type: biochemical
T1 construct: polypeptide fragments corresponding to a DHR-2 domain including the lobe B and the lobe C of DOCK2; Histidine-SUMO (N); made in house; host or cells: E. coli Arctic express DE3 (pET28a); Rac in E. coli BL21 DE3 (pGEX-6P-1)
T1 sequence (Q92608 1196-1622): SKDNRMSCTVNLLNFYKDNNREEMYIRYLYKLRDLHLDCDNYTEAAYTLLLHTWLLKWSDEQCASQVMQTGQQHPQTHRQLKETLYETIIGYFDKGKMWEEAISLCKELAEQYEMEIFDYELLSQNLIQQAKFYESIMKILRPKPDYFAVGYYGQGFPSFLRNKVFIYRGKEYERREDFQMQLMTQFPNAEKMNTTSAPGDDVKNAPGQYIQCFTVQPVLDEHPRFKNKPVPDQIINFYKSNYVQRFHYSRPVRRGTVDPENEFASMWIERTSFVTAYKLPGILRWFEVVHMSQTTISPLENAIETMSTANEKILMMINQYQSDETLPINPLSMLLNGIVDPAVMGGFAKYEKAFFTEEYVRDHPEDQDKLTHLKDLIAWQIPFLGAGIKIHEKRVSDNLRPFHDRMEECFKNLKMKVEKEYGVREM
Method: The selectivity of the effect of inhibiting the GEF of DOCK2 by cholesterol 3-sulfate was examined. All of DOCK2, Trio, and Tiam are GEFs activating Rac. In the presence of serially diluted cholesterol 3-sulfate, the Rac activation ability of a DOCK2 protein, a Trio protein, and a Tiam protein was measured by in-vitro GEF assay. For the in-vitro GEF assay, a labeled GTP (trade name, “Bodipy-FL-GTP”, manufactured by Invitrogen) was used, because it has a property of increasing fluorescence intensity when binds to Rac by the action of GEF. […]
During the reaction, the change in the fluorescence intensity of Bodipy-FL-GPT was monitored using a spectrofluorometer Enspire manufactured by PerkinElmer Inc (excitation wavelength: 488 nm, emission wavelength: 514 nm). By calculation, the values obtained by the measurement were corrected such that the fluorescence intensity became 0 at a reaction starting point (0 second).
Then, by using software (trade name “GraphPad Prism 5”, manufactured by GraphPad Software Inc.), an approximation curve was created which is obtained in a case where the calculated corrected values are plotted on the y-axis and time (t) is plotted on the x-axis. […]

[2] = test system: T cells (mouse spleen cells); experiment: lymphocyte migration assay using transwell (CCL21); type: cell-based; conditions: CCL21 300 ng/mL
Method: The influence of cholesterol 3-sulfate on the migration of T cells was examined. As a control, an experiment using T cells derived from a DOCK2 knockout mouse was also performed. More specifically, first, mouse spleen cells (1×10^7 cells/mL) were cultured for 1 hour at 37° C. in 0.5% BSA-containing RPMI-1640 (transwell medium) in the presence of cholesterol 3-sulfate at a predetermined concentration or in the presence of DMSO alone (control). The concentration of DMSO was adjusted such that the final concentration of DMSO became 0.2% in all samples. Then, a transwell medium containing chemokine CCL21 (300 ng/mL) and cholesterol 3-sulfate at a predetermined concentration was added to a 24-well plate, and then a transwell (with 5 μm pores, Corning) was set in the well so as to load the pre-cultured cells (1×10^6 cells/100 μL). Subsequently, the cells were incubated for 2 hours at 37° C., and the cells that moved to the lower chamber were collected and stained with PE-labeled anti Thy1.2-antibody (“53-2-1” model, BD Pharmingen). By dividing the number of Thy1.2-positive cells (T cells) in the lower chamber by the number of Thy1.2-positive cells (T cells) put into the transwell, the proportion of T cells having moved (migration of T cells (%)) was calculated. More specifically, first, mouse spleen cells (1×10^7 cells/mL) were cultured for 1 hour at 37° C. in 0.5% BSA-containing RPMI-1640 (transwell medium) in the presence of various steroid compounds at the concentration of 12.5 μM or in the presence of DMSO alone (control). The concentration of DMSO was adjusted such that the final concentration of DMSO became 0.2% in all samples. Then, by performing the transwell assay as described above, the effects of various steroid compounds on the migratory responses of T cells to CCL21 (300 ng/mL) were examined by comparison.

CC(C)CCC[C@@H](C)[C@H]1CC[C@H]2[C@@H]3CC=C4C[C@@H](OS(=O)(=O)O)CC[C@]4(C)[C@H]3CC[C@]12C [C3S, cholesterol 3-sulfate]
IC50 [1]: 6.7 µM
migration of T cells in response to CCL21 ([2]; 6.25 μM): inhibited to the level of T cells derived from DOCK2 knockout mouse
migration of T cells in response to CCL21 ([2]; 12.5 μM, Experimental Example 6): specifically inhibits the migration of T cells
migration of T cells in response to CCL21 ([2]; predetermined concentrations, Experimental Example 5): markedly inhibited
